This note sets out measurements from US20060073121A1, “Spray formulation for pungency enhancement in Capsicum” (priority 2004, published 2006).

In this assay the test system is Capsicum frutescens and Capsicum annuum. Kind of assay: Comparative number of folds enhancement of phenyl propanoid intermediates and capsaicinoids by optimized elicitors. In kind it is in vivo. As to the method: (§1) The flowers of C. frutescens were sprayed with water, which was taken as control. The fruits of C. frutescens which received different treatments were harvested on 25, 30, 35 and 40 days after anthesis and extracted with 1:2 (w/v) of acetonitrile followed by in-vacuo evaporation and resuspension with 1 ml methanol. The extracted samples were centrifuged at 4000 rpm for 10 minutes. The samples were subjected to High Performance Liquid Chromatography for quantification of phenyl proponoid intermediates and major Capsaicinoids. The mobile phase of linear gradient of 0-100 % acetonitrile in water with pH 3.0 for 35 minutes and 100% was maintained for 2 minutes at 35th minute. The detection was at 236 nm and flow rate was maintained at 1 ml/min. C-18 column of 250×4.6 mm and 5-μm diameter was used. The reagent used was of HPLC grade. The intermediates of phenyl proponoid pathway (Phenylalanine, Cinnamic acid, Coumaric acid, Caffeic acid, Ferulic acid and Vanillylamine) and two major Capsaicinoids (Capsaicin and Dihydrdcapsaicin) were purchased from Sigma Co. A standard stock solution of 1 mg/ml was prepared in methanol. 5 and 10 μl of standards and samples was injected to HPLC for three times and the mean value was calculated. Standard deviation of samples was calculated according to Tukey's method.
as §1, with “C. annuum var Arka Lohit” for “C. frutescens”, “of Acetonitrile” for “of acetonitrile”, “of 0-100%” for “of 0-100 %”, “and Dihydrocapsaicin)” for “and Dihydrdcapsaicin)”

The mark [1] stands for this setting: 35 days after anthesis, optimized concentration: biotic 0.5-1% w/v, abiotic 2.5 μM.

Turning to `CC/C=C\CC1C(=O)CCC1CC(=O)OC` (stereo not shown) [Methyl Jasmonate], under setting [1], the “number of folds enhancement of Caffeic Acid” value is on record as 1.63-3.79 folds, the “number of folds enhancement of Capsaicin” value is 1.65-1.88 folds, the “number of folds enhancement of Cinnamic Acid” value is 1.42-3.79 folds and the “number of folds enhancement of Coumaric Acid” value is 1.25-3.51 folds. Further, under setting [1], the “number of folds enhancement of Dihydrocapsaicin” value was 1.41-1.68 folds, the “number of folds enhancement of Ferulic Acid” value is listed as 1.59-2.43 folds, the “number of folds enhancement of Phenylalanine” value is 1.36-1.52 folds and the “number of folds enhancement of Vanillylamine” value is 1.68-1.77 folds.

For the compound `O=C([O-])c1ccccc1O.[Na+]` [Salicylic Acid sodium salt, Salicylic acid sodium salt], where the note is “in vivo”, the “number of folds enhancement of Caffeic Acid” value is 1.45-1.75 folds, the “number of folds enhancement of Capsaicin” value is recorded as 1.26-1.58 folds, the “number of folds enhancement of Cinnamic Acid” value is 1.36-2.50 folds and the “number of folds enhancement of Coumaric Acid” value is 1.28-1.67 folds. Moreover, where the note is “in vivo”, the “number of folds enhancement of Dihydrocapsaicin” value was 1.11-1.32 folds, the “number of folds enhancement of Ferulic Acid” value is 1.11-1.28 folds, the “number of folds enhancement of Phenylalanine” value is given as 1.02-1.44 folds and the “number of folds enhancement of Vanillylamine” value was 1.26-1.28 folds.
